From patent US20260015341A1, “PI3K INHIBITOR, PREPARATION METHOD THEREFOR, AND USE THEREOF” (HINOVA PHARMACEUTICALS INC., priority 2022, published 2026)

Assays:
MCF-10A cells = experiment: Inhibitory effects on the proliferation of MCF-10A cells (CCK8); format: cell-based; details: Homo sapiens, 144 h, 6 days
Description: Experimental Example 2: Experiment of Inhibitory Effects on the Proliferation of MCF-10A Cells
MCF-10A cells (Cobioer Bio. #CBP60419MCF) were diluted with complete medium (Cobioer Bio. #CBP60419), seeded in 96-well plate (Corning #3599) at 500 cells/well, and then cultured for 24 h. Then, gradiently diluted compounds were added (starting at a final concentration of 10 μM, 3-fold dilution, 9 dose concentrations), and the final volume was adjusted to 100 μL/well. The plate was incubated at 37° C. under 5% CO2 for 6 days. After the cultivation was completed, CCK8 reagent (Signalway Antibody Bio. #CP002) was added at 10 μL/well, and then the plate was further incubated at 37° C. under 5% CO2 for 2-3 hours. The OD450 nm value was obtained by a microplate reader.
The results are shown in the MCF-OA IC50 column in Table 2.

T47D cells = experiment: Inhibitory effects on the proliferation of T47D cells (CellTiter-Glo); format: cell-based; details: Homo sapiens, 168 h, 7 days
Description: Experimental Example 3: Experiment of Inhibitory Effects on the Proliferation of T47D Cells
T47D cells (ATCC. #HTB-133) were diluted with RPMI 1640 (Gibco #22400-089) containing 10% FBS (Hyclone #SH30084.03), seeded in 96-well plate (Biosharp #BS-MP-96W) at 1000 cells/well, and then cultured for 24 h. Then, gradiently diluted compounds were added (starting at a final concentration of 10 μM, 3-fold dilution, 9 dose concentrations), and the final volume was adjusted to 150 μL/well. The plate was incubated at 37° C. under […] for 7 days. After the cultivation was completed, CellTiter-Glo reagent (Promega #G7573) was added at 75 μL/well, and then the plate was further incubated at 25° C. for 10 min. After that, the chemiluminescence value was read using an instrument.
The results are shown in the T47D IC50 column in Table 2.

Pharmacokinetics in rats = format: in vivo, SD rats; details: rat; for AUC / half-life / clearance / Vd: male, SD, plasma; for Vd: read-out: VSS
Description: Experimental Example 4: The Pharmacokinetics of the Compound According to the Present Invention in Rats
(§1) 9 healthy adult male SD rats (three for each administration route of each compound) were fasted overnight (>12 h) before gavage, with free access to water; 4 hours after administration, rats could take food, and were administered via tail vein injection and gastric lavage, respectively. At different time points, intravenous blood sample was collected and anti-coagulated, wherein the anticoagulant was EDTA-K2 (the sample was placed in an ice bath after blood collection). The plasma was separated by centrifugation at 4° C. and 6000 g for 5 min, and stored at −70° C. for testing. The plasma concentration of compounds was determined by LC-MS/MS method.
(§2) The plasma concentration of compound at all time points was used to calculate the main pharmacokinetic parameters with Winnolin 8.3 non-compartmental model.
(§3) The area under the concentration-time curve AUCall value: calculated using the trapezoidal method; AUCinf=AUCall+Ct/ke, Ct is the plasma concentration at the last measurable time point, and ke is the elimination rate constant;
The elimination half life t1/2=0.693/ke;
(§4) The clearance rate CL=D/AUCinf (D is the administration dosage);
The volume of distribution at steady state Vss=CL×MRT, The mean retention time MRT=AUMC/AUC;

[1] = Pharmacokinetics in beagle dogs; format: in vivo; details: beagle dog
Description: Experimental Example 5: The Pharmacokinetics of the Compound According to the Present Invention in Beagle Dogs
as §1, with “beagle dogs” for “SD rats”, “forelimb venous” for “intravenous”, “3200” for “4° C. and 6000”, “10” for “5”
as §2, §3, §4
The volume of distribution at steady state Vss=CL×MRT. The mean retention time MRT=AUMC/AUC;

[2] = iv (tail vein injection), 1 mg/kg
[3] = male, plasma, po, ig (intragastric), 3 mg/kg
[4] = male, plasma, po, ig (intragastric), 10 mg/kg

| Compound | IC50 (MCF-10A cells) | IC50 (T47D cells) | AUC (Pharmacokinetics in rats; po, ig (intragastric), 3 mg/kg) | half-life (Pharmacokinetics in rats; po, ig (intragastric), 3 mg/kg) | AUC (Pharmacokinetics in rats; [2]) | clearance (Pharmacokinetics in rats; [2]) | half-life (Pharmacokinetics in rats; [2]) | Vd (Pharmacokinetics in rats; [2]) | F (Pharmacokinetics in rats; ig (intragastric), 3 mg/kg) | F ([1]; ig (intragastric), 3 mg/kg) | F ([1]; ig (intragastric), 10 mg/kg) | AUC [1, 3] | half-life [1, 3] | AUC [1, 4] | half-life [1, 4] | AUC ([1]; male, plasma, iv, 1 mg/kg) | clearance ([1]; male, plasma, iv, 1 mg/kg) | half-life ([1]; male, plasma, iv, 1 mg/kg) | Vd ([1]; male, plasma, iv, 1 mg/kg, read-out: VSS) |
| --- | --- | --- | --- | --- | --- | --- | --- | --- | --- | --- | --- | --- | --- | --- | --- | --- | --- | --- | --- |
| Cc1cc([C@@H](C)Nc2ccc(Cl)nc2C(=O)O)c2nc(-c3ccccc3)n(C)c(=O)c2c1 [Compound 115] | > 5 µM | > 5 µM | 2360 ng·h/mL | 3.83 h | 978 ng·h/mL | 17.5 mL/min/kg | 3.79 h | 2.14 L/kg | 80.3% |  |  |  |  |  |  |  |  |  |  |
| Cc1cc([C@@H](C)Nc2ccc(Cl)nc2C(=O)O)c2nc(-c3ccc(F)cc3)n(C)c(=O)c2c1 [Compound 65] | > 5 µM | < 1 µM | 3430 ng·h/mL | 1.34 h | 1000 ng·h/mL | 16.3 mL/min/kg | 2.95 h | 1.71 L/kg | 79.6% | 27.1% | 24.9% | 760 ng·h/mL | 2.13 h | 2370 ng·h/mL | 4.19 h | 954 ng·h/mL | 17.4 mL/min/kg | 2.1 h | 0.828 L/kg |
